Measurements reported in patent US10335374B2, “Tablet composition for anti-tuberculosis antibiotics” (priority 2014, dated 2019).
≈ marks a conversion by molar mass, not a printed value.

Legend:
Assay in all cases: microbe, parasite or virus in culture
Assay type in all cases: cell-based, M. tuberculosis
[1] = system: isoniazid-resistant strain; conditions: Mycobacterium tuberculosis
[2] = system: rifampin-resistant strain; conditions: Mycobacterium tuberculosis
[3] = system: ofloxacin-resistant strain; conditions: Mycobacterium tuberculosis
[4] = system: INH-R1 (isoniazid resistant)
[5] = system: INH-R2 (isoniazid resistant)
[6] = system: RIF-R1 (rifampicin resistant); conditions: Mycobacterium tuberculosis
[7] = system: RIF-R2 (rifampicin resistant); conditions: Mycobacterium tuberculosis
[8] = system: FQ-R1 (fluoroquinolone resistant); conditions: Mycobacterium tuberculosis

| SMILES | MIC [1] [µM] | MIC [2] [µM] | MIC [3] [µM] | MIC ([4]; Mycobacterium tuberculosis) [µM] | MIC ([5]; Mycobacterium tuberculosis) [µM] | MIC [6] [µM] | MIC [7] [µM] | MIC [8] [µM] | MIC ([4]; Resistant Isolate INH-R1, isoniazid-sucrose series) [µM] | MIC ([5]; Resistant Isolate INH-R2, isoniazid-sucrose series) [µM] |
| --- | --- | --- | --- | --- | --- | --- | --- | --- | --- | --- |
| NCC[C@H](O)C(=O)N[C@@H]1C[C@H](N)[C@@H](O[C@H]2O[C@H](CN)[C@@H](O)[C@H](O)[C@H]2O)[C@H](O)[C@H]1O[C@H]1O[C@H](CO)[C@@H](O)[C@H](N)[C@H]1O [amikacin] | 2.05 (≈ 1.2 µg/mL) | 0.256 (≈ 0.15 µg/mL) | 0.256 (≈ 0.15 µg/mL) | – | – | – | – | – | – | – |
| CO[C@H]1/C=C/O[C@@]2(C)Oc3c(C)c(O)c4c(O)c(c(/C=N/N5CCN(C)CC5)c(O)c4c3C2=O)NC(=O)/C(C)=C\C=C\[C@H](C)[C@H](O)[C@@H](C)[C@@H](O)[C@@H](C)[C@H](OC(C)=O)[C@@H]1C [rifampicin] | – | – | – | 0.02 (≈ 0.0165 µg/mL) | 0.0075 (≈ 0.00617 µg/mL) | 12.4 (≈ 10.2 µg/mL) | > 200 | 0.017 (≈ 0.014 µg/mL) | – | – |
| NNC(=O)c1ccncc1 [Isoniazid (INH), isoniazid] | – | – | – | > 200 | > 200 | – | – | – | >200 | >200 |
